The record followed here is ChEMBL document CHEMBL5113368, “Meroterpenoids produced by fungi: Occurrence, structural diversity, biological activities, and their molecular targets” (Eur J Med Chem, 2021).

For one data set, the system named is MCF7. The experiment in a line: Cytotoxicity against human MCF7 cells assessed as cell growth inhibition measured after 96 hrs by MTT assay. The class given is functional, cell-based. Conditions: MCF7, 96 h.
The subject of the next data set is HL-60. The experiment in a line: Cytotoxicity against human HL-60 cells assessed as cell growth inhibition measured after 48 hrs by MTT assay. The class given is functional, cell-based. Conditions: HL-60, 48 h.
The test system of the next data set is Plasmodium falciparum. The experiment in a line: Antimalarial activity multidrug-resistant Plasmodium falciparum K1 assessed as inhibition of parasite growth by [3H]-hypoxanthine incorporation assay. The format is functional, organism-based.
For a further data set, the system named is NCI-H187. The data set can be described thus: Cytotoxicity against human NCI-H187 cells assessed as cell growth inhibition. The format is functional, cell-based.
Another data set has as its system KB. The data set can be described thus: Cytotoxicity against human KB cells assessed as cell growth inhibition. The class given is functional, cell-based.
A short description of data set [1]: Toxicity in brine shrimp assessed as induction of lethality. As to conditions: artemia salina; read-out: LD50 (the source's name).
The subject of another data set is MGC-803. The data set can be described thus: Cytotoxicity against human MGC-803 cells assessed as cell growth inhibition measured after 72 hrs by MTT assay. The class given is functional.
In the next data set the test system is RAW264.7. The experiment in a line: Antiinflammatory activity in mouse RAW264.7 cells assessed as decrease in LPS-induced IL-6 expression at 40 uM preincubated for 2 hrs followed by LPS-stimulation for 22 hrs by ELISA analysis relative to control. The format is functional. Conditions: time 24 hrs.
Data set [2] can be described thus: Antioxidant activity assessed as ABTS radical scavenging activity. The class given is functional.
The nature of data set [3]: Antioxidant activity assessed as DPPH radical scavenging activity. The format is functional.
The subject of the next data set is Suid alphaherpesvirus 1. The experiment in a line: Antiviral activity against pseudorabies virus assessed as inhibition of viral growth. The class given is functional, organism-based.
Data set [4] concerns Clavibacter michiganensis subsp. sepedonicus. The experiment in a line: Antibacterial activity against Clavibacter michiganensis subsp. sepedonicus assessed as inhibition of bacterial growth measured after 18 to 48 hrs. The class given is functional. Conditions: time 18-48 hrs.
Data set [5] has as its system Mycobacterium tuberculosis. The experiment in a line: Antimycobacterial activity against Mycobacterium tuberculosis H37Ra assessed as inhibition of bacterial growth by microplate alamar blue assay. The format is functional.
In a further data set the test system is Phytophthora nicotianae. The data set can be described thus: Antifungal activity Phytophthora parasitica assessed as inhibition of fungal growth by microbroth dilution method. The class given is functional.
For the next data set, the system named is Verticillium dahliae. The experiment in a line: Antifungal activity Verticillium dahliae assessed as inhibition of fungal growth by microbroth dilution method. The format is functional.
The test system of another data set is Bacillus subtilis. The experiment in a line: Antibacterial activity against Bacillus subtilis assessed as reduction in microbial growth by modified broth dilution test. The format is functional.

Values after ≈ are worked out from the molar mass of the structure shown.

With `CC(C)=CC[C@H]1C(=O)C2=C(CO[C@@H]2CCO)[C@@H](O)[C@H]1O`, the 50% inhibitory concentration (IC50) in the data set with MCF7 was found to be 4.2 µM.
For the compound `CC1=C[C@H]2c3c(O)cc(C)c(C(=O)O)c3OC(C)(C)[C@H]2CC1` (relative stereo), the IC50 in the data set on HL-60 stood at 24.1 µM.
As for `CC(=O)O[C@H]1C[C@@H](OC(C)=O)[C@@]2(C)[C@@H](CC[C@]3(C)[C@@H]2CC[C@]2(C)Oc4oc(C)cc(=O)c4C[C@@H]32)C1(C)C`, the IC50 in the data set with Plasmodium falciparum was 6.67 µM; in the data set on NCI-H187, 32.7 µM; with KB, 32.7 µM.
Take `C=C(C)[C@H]1O[C@H]2CC[C@@]3(C)[C@@](O)(CC[C@@]4(O)[C@@H]5OC(C)(C)[C@H]6C[C@@H]7C(=C)Cc8c(Cl)cc9[nH]c(c5c9c8[C@@]76O)[C@]34C)[C@]23O[C@@H]3[C@H]1O`: the LC50 in data set [1] was determined as 3.2 µM.
For `CC(=O)OC[C@@]1(C)[C@@H]2C[C@H](OC(C)=O)[C@@]3(C)Oc4cc(-c5ccccc5)oc(=O)c4[C@H](O)[C@@H]3[C@@]2(C)C=C[C@@H]1O`, the cytotoxic concentration (CC50) in the data set on MGC-803 came out at 19.1 µM.
As for `Cc1oc(=O)c2c(c1C)O[C@@]1(C)[C@@H]([C@@H](C)[C@]3(O)CC(=O)C(C)(C)C(=O)[C@@]3(O)[C@H]1O)[C@H]2O`, the inhibition at 40 µM in the data set with RAW264.7 came out at 69%.
With `C/C(=C\CCC1=CC(c2cc(O)ccc2O)OC1=O)C(=O)O` (centres undefined), the IC50 in [2] came to 31.2 µM; in data set [3], 65.4 µM.
As to `C=C(C)[C@H]1O[C@H]2CC[C@@]3(C)[C@@](O)(CC[C@@]4(O)[C@@H]5OC(C)(C)[C@H]6C[C@@H]7C(=C)Cc8ccc9[nH]c(c5c9c8[C@@]76O)[C@]34C)[C@]23O[C@@H]3[C@H]1O`, the LC50 in data set [1] is 4.6 µM.
Consider `C[C@@H]1Cc2c3c(cc(O)c2C(=O)O1)O[C@]1(C)CCC[C@](C)([C@H]2C[C@@H](O)C2(C)C)[C@H]1C3`, for which the EC50 in the data set on Suid alphaherpesvirus 1 was 3.35 µM.
Turning to `CC1=CC[C@H]2C(C)(C)C(=O)CC[C@]2(C)[C@H]1C[C@@]12O[C@@H]1[C@H](O)C(CO)=C[C@H]2O`, the minimum inhibitory concentration (MIC) in [4] came out at 9.48 µg/mL (≈ 25.2 µM).
Regarding `CC(=O)O[C@H]1C[C@@H](O)[C@@]2(C)[C@@H](CC[C@]3(C)[C@@H]2CC[C@]2(C)Oc4oc(C)cc(=O)c4C[C@@H]32)C1(C)C`, the MIC in [5] turned out to be 26.4 µM (≈ 12.5 µg/mL). For the same compound, the half-maximal inhibitory concentration (IC50) in the data set with NCI-H187 and in the data set on KB was 32.7 µM in each case.
For the compound `Cc1oc(=O)c2c(c1C)O[C@]1(C)[C@H](O)C(=O)[C@]3(O)C(C)(C)C(=O)C[C@@]3(O)[C@H](C)[C@H]1C2`, the minimal inhibitory concentration (MIC) with Phytophthora nicotianae, with Verticillium dahliae and in the data set with Bacillus subtilis was 12.5 µg/mL each time.
